According to ChEMBL document CHEMBL4732069, “Singly and doubly modified analogues of C20-epi-salinomycin: A new group of antiparasitic agents against Trypanosoma brucei” (Eur J Med Chem, 2021):
Active and inactive are the calls of the source. The rule behind the calls is not given here.

Experiments:
[1] = tested on: Trypanosoma brucei brucei; assay: Antitrypanosomal activity against Trypanosoma brucei brucei S427 by resazurin dye based fluorescence assay; type: functional
[2] = Selectivity index, ratio of GI50 for human HL-60 cells to GI50 for antitrypanosomal activity against Trypanosoma brucei brucei S427; type: toxicity; conditions: read-out: RatioGI50
[3] = Cytotoxicity against human HL-60 cells by resazurin dye based fluorescence assay; type: cell-based
[4] = tested on: Trypanosoma brucei brucei; assay: Antitrypanosomal activity against Trypanosoma brucei brucei assessed as cell swelling; type: functional, organism-based

Row | GI50 [1] [µM] | Compound | selectivity ratio [2] | GI50 [3] [µM] | Activity [4]
1 | 0.2 | CCCCCCCCNC(=O)O[C@H]1C=C[C@]2(O[C@H]([C@@H](CC)C(=O)[C@@H](C)[C@@H](O)[C@H](C)[C@@H]3O[C@@H]([C@@H](CC)C(=O)O)CC[C@@H]3C)[C@@H](C)C[C@H]2C)O[C@@]12CC[C@@](C)([C@H]1CC[C@](O)(CC)[C@H](C)O1)O2 | 123 | 24.6 | –
2 | 15 | C#CCOC(=O)[C@H](CC)[C@H]1CC[C@H](C)[C@H]([C@@H](C)[C@H](O)[C@H](C)C(=O)[C@H](CC)[C@H]2O[C@]3(C=C[C@H](OC(=O)OCC)[C@]4(CC[C@@](C)([C@H]5CC[C@](O)(CC)[C@H](C)O5)O4)O3)[C@H](C)C[C@@H]2C)O1 | > 312 | > 100 | –
3 | 2.81 | CC[C@@H](C(=O)[C@@H](C)[C@@H](O)[C@H](C)[C@@H]1O[C@@H]([C@@H](CC)C(=O)ONC(=O)c2ccccc2O)CC[C@@H]1C)[C@H]1O[C@]2(C=C[C@H](O)[C@]3(CC[C@@](C)([C@H]4CC[C@](O)(CC)[C@H](C)O4)O3)O2)[C@H](C)C[C@@H]1C | 11.8 | 33.2 | –
4 | 21.6 | CC[C@@H](C(=O)[C@@H](C)[C@@H](O)[C@H](C)[C@@H]1O[C@@H]([C@@H](CC)C(=O)O)CC[C@@H]1C)[C@H]1O[C@]2(C=C[C@H](OC(=O)OCC(C)(C)C)[C@]3(CC[C@@](C)([C@H]4CC[C@](O)(CC)[C@H](C)O4)O3)O2)[C@H](C)C[C@@H]1C | 2 | 42.4 | –
5 | 0.22 | CC[C@@H](C(=O)[C@@H](C)[C@@H](O)[C@H](C)[C@@H]1O[C@@H]([C@@H](CC)C(=O)O)CC[C@@H]1C)[C@H]1O[C@]2(C=C[C@H](OC(=O)Oc3ccccc3)[C@]3(CC[C@@](C)([C@H]4CC[C@](O)(CC)[C@H](C)O4)O3)O2)[C@H](C)C[C@@H]1C | 106 | 23.4 | –
6 | 0.59 | CC[C@@H](C(=O)[C@@H](C)[C@@H](O)[C@H](C)[C@@H]1O[C@@H]([C@@H](CC)C(=O)ONC(=O)c2ccccc2O)CC[C@@H]1C)[C@H]1O[C@]2(C=C[C@H](OC(C)=O)[C@]3(CC[C@@](C)([C@H]4CC[C@](O)(CC)[C@H](C)O4)O3)O2)[C@H](C)C[C@@H]1C | 353 | 203 | –
7 | 0.058 | Cc1ccc(C(=O)Nc2ccc(S(=O)(=O)O)c3cc(S(=O)(=O)O)cc(S(=O)(=O)O)c23)cc1NC(=O)c1cccc(NC(=O)Nc2cccc(C(=O)Nc3cc(C(=O)Nc4ccc(S(=O)(=O)O)c5cc(S(=O)(=O)O)cc(S(=O)(=O)O)c45)ccc3C)c2)c1 [SURAMIN] | > 1720 | > 100 | –
8 | 20.9 | C#CCNC(=O)[C@H](CC)[C@H]1CC[C@H](C)[C@H]([C@@H](C)[C@H](O)[C@H](C)C(=O)[C@H](CC)[C@H]2O[C@]3(C=C[C@H](OC(C)=O)[C@]4(CC[C@@](C)([C@H]5CC[C@](O)(CC)[C@H](C)O5)O4)O3)[C@H](C)C[C@@H]2C)O1 | 2 | 39.8 | –
9 | 22.4 | C#CCOC(=O)[C@H](CC)[C@H]1CC[C@H](C)[C@H]([C@@H](C)[C@H](O)[C@H](C)C(=O)[C@H](CC)[C@H]2O[C@]3(C=C[C@H](OC(C)=O)[C@]4(CC[C@@](C)([C@H]5CC[C@](O)(CC)[C@H](C)O5)O4)O3)[C@H](C)C[C@@H]2C)O1 | 123 | > 100 | –
10 | 3.15 | CC[C@@H](C(=O)[C@@H](C)[C@@H](O)[C@H](C)[C@@H]1O[C@@H]([C@@H](CC)C(=O)O)CC[C@@H]1C)[C@H]1O[C@]2(C=C[C@H](OC(=O)Nc3ccccc3)[C@]3(CC[C@@](C)([C@H]4CC[C@](O)(CC)[C@H](C)O4)O3)O2)[C@H](C)C[C@@H]1C | 18.2 | 57.2 | –
11 | 13.8 | C#CCNC(=O)[C@H](CC)[C@H]1CC[C@H](C)[C@H]([C@@H](C)[C@H](O)[C@H](C)C(=O)[C@H](CC)[C@H]2O[C@]3(C=C[C@H](OC(=O)OCC)[C@]4(CC[C@@](C)([C@H]5CC[C@](O)(CC)[C@H](C)O5)O4)O3)[C@H](C)C[C@@H]2C)O1 | 106 | 61.8 | –
12 | 0.32 | CC[C@@H](C(=O)[C@@H](C)[C@@H](O)[C@H](C)[C@@H]1O[C@@H]([C@@H](CC)C(=O)ONC(=O)c2ccccc2)CC[C@@H]1C)[C@H]1O[C@]2(C=C[C@H](O)[C@]3(CC[C@@](C)([C@H]4CC[C@](O)(CC)[C@H](C)O4)O3)O2)[C@H](C)C[C@@H]1C | 29.8 | 9.54 | –
13 | 2.48 | CCCCCCCCCC(=O)O[C@H]1C=C[C@]2(O[C@H]([C@@H](CC)C(=O)[C@@H](C)[C@@H](O)[C@H](C)[C@@H]3O[C@@H]([C@@H](CC)C(=O)O)CC[C@@H]3C)[C@@H](C)C[C@H]2C)O[C@@]12CC[C@@](C)([C@H]1CC[C@](O)(CC)[C@H](C)O1)O2 | 165 | 5.97 | Active
14 | 0.32 | CC[C@@H](C(=O)[C@@H](C)[C@@H](O)[C@H](C)[C@@H]1O[C@@H]([C@@H](CC)C(=O)O)CC[C@@H]1C)[C@H]1O[C@]2(C=C[C@H](OC(=O)NC(C)(C)C)[C@]3(CC[C@@](C)([C@H]4CC[C@](O)(CC)[C@H](C)O4)O3)O2)[C@H](C)C[C@@H]1C | > 312 | > 100 | –
15 | 0.47 | CC[C@@H](C(=O)[C@@H](C)[C@@H](O)[C@H](C)[C@@H]1O[C@@H]([C@@H](CC)C(=O)ONC(=O)c2ccccc2)CC[C@@H]1C)[C@H]1O[C@]2(C=C[C@H](OC(C)=O)[C@]3(CC[C@@](C)([C@H]4CC[C@](O)(CC)[C@H](C)O4)O3)O2)[C@H](C)C[C@@H]1C | 18.2 | 19.1 | –
16 | 0.036 | CC[C@@H](C(=O)[C@@H](C)[C@@H](O)[C@H](C)[C@@H]1O[C@@H]([C@@H](CC)C(=O)O)CC[C@@H]1C)[C@H]1O[C@]2(C=C[C@H](OC(=O)C(C)C)[C@]3(CC[C@@](C)([C@H]4CC[C@](O)(CC)[C@H](C)O4)O3)O2)[C@H](C)C[C@@H]1C | 90 | 21.6 | –
17 | 2.97 | C#CCNC(=O)[C@H](CC)[C@H]1CC[C@H](C)[C@H]([C@@H](C)[C@H](O)[C@H](C)C(=O)[C@H](CC)[C@H]2O[C@]3(C=C[C@H](O)[C@]4(CC[C@@](C)([C@H]5CC[C@](O)(CC)[C@H](C)O5)O4)O3)[C@H](C)C[C@@H]2C)O1 | 15.1 | 44.8 | –
18 | 0.34 | CC[C@@H](C(=O)[C@@H](C)[C@@H](O)[C@H](C)[C@@H]1O[C@@H]([C@@H](CC)C(=O)O)CC[C@@H]1C)[C@H]1O[C@]2(C=C[C@H](OC(=O)c3ccccc3)[C@]3(CC[C@@](C)([C@H]4CC[C@](O)(CC)[C@H](C)O4)O3)O2)[C@H](C)C[C@@H]1C | 67.5 | 13.5 | –
19 | 26.9 | C#CCOC(=O)[C@H](CC)[C@H]1CC[C@H](C)[C@H]([C@@H](C)[C@H](O)[C@H](C)C(=O)[C@H](CC)[C@H]2O[C@]3(C=C[C@H](O)[C@]4(CC[C@@](C)([C@H]5CC[C@](O)(CC)[C@H](C)O5)O4)O3)[C@H](C)C[C@@H]2C)O1 | > 3.7 | > 100 | –
20 | 0.24 | CC[C@@H](C(=O)[C@@H](C)[C@@H](O)[C@H](C)[C@@H]1O[C@@H]([C@@H](CC)C(=O)O)CC[C@@H]1C)[C@H]1O[C@]2(C=C[C@H](OC(=O)C34CC5CC(CC(C5)C3)C4)[C@]3(CC[C@@](C)([C@H]4CC[C@](O)(CC)[C@H](C)O4)O3)O2)[C@H](C)C[C@@H]1C | 55 | 18.7 | –
21 | 0.027 | CCNC(=O)N(CC)C(=O)O[C@H]1C=C[C@]2(O[C@H]([C@@H](CC)C(=O)[C@@H](C)[C@@H](O)[C@H](C)[C@@H]3O[C@@H]([C@@H](CC)C(=O)O)CC[C@@H]3C)[C@@H](C)C[C@H]2C)O[C@@]12CC[C@@](C)([C@H]1CC[C@](O)(CC)[C@H](C)O1)O2 | 353 | 9.54 | Active

Row | Compound | GI50 [1] [µM] | selectivity ratio [2] | GI50 [3] [µM] | Activity [4]
22 | CC[C@@H](C(=O)[C@@H](C)[C@@H](O)[C@H](C)[C@@H]1O[C@@H]([C@@H](CC)C(=O)O)CC[C@@H]1C)[C@H]1O[C@]2(C=C[C@H](O)[C@]3(CC[C@@](C)([C@H]4CC[C@](O)(CC)[C@H](C)O4)O3)O2)[C@H](C)C[C@@H]1C | 8.49 | 4.6 | 393 | inactive
23 | CC[C@@H](C(=O)[C@@H](C)[C@@H](O)[C@H](C)[C@@H]1O[C@@H]([C@@H](CC)C(=O)O)CC[C@@H]1C)[C@H]1O[C@]2(C=C[C@@H](O)[C@]3(CC[C@@](C)([C@H]4CC[C@](O)(CC)[C@H](C)O4)O3)O2)[C@H](C)C[C@@H]1C [SALINOMYCIN] | 0.3 | 168 | 50.5 | Active
24 | CCOC(=O)O[C@H]1C=C[C@]2(O[C@H]([C@@H](CC)C(=O)[C@@H](C)[C@@H](O)[C@H](C)[C@@H]3O[C@@H]([C@@H](CC)C(=O)O)CC[C@@H]3C)[C@@H](C)C[C@H]2C)O[C@@]12CC[C@@](C)([C@H]1CC[C@](O)(CC)[C@H](C)O1)O2 | 0.2 | 293 | 12.6 | Active
25 | CC[C@@H](C(=O)[C@@H](C)[C@@H](O)[C@H](C)[C@@H]1O[C@@H]([C@@H](CC)C(=O)O)CC[C@@H]1C)[C@H]1O[C@]2(C=C[C@H](OC(C)=O)[C@]3(CC[C@@](C)([C@H]4CC[C@](O)(CC)[C@H](C)O4)O3)O2)[C@H](C)C[C@@H]1C | 0.043 | 21.2 | 52.5 | –
